According to patent publication US20250213647A1, “CHEMOKINE RECEPTORS AND ALPHA1 ADRENERGIC RECEPTORS/VASOPRESSIN RECEPTORS 1A HETEROMERS AS DRUG TARGETS FOR DISEASE” (UNIVERSITY OF SOUTH FLORIDA, priority 2022, published 2025):

Legend:
Format in all cases: cell-based
CCR2:α1b-AR heteromers = CCR2:α1b-AR heteromers (Homo sapiens, UniProt P35368+P41597); assay: BRET assay for β-arrestin recruitment, HEK293T co-expressing CCR2-Rluc, β-arrestin-YFP and α1b-AR; design: expressed in transfected cells; details: CCL2 plus 10 μM ligand; FIG. 5D
Sequence of CCR2:α1b-AR heteromers (P41597 whole entry): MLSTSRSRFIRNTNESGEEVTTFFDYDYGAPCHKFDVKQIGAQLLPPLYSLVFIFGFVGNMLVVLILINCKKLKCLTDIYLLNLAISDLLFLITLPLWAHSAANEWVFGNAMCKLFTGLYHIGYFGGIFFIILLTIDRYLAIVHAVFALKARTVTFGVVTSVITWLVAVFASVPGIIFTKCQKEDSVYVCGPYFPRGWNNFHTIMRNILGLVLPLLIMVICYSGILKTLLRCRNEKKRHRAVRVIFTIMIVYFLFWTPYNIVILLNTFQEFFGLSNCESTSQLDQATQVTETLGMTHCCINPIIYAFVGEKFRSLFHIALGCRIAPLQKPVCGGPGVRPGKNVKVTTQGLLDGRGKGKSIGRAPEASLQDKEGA
Sequence of CCR2:α1b-AR heteromers (P35368 whole entry): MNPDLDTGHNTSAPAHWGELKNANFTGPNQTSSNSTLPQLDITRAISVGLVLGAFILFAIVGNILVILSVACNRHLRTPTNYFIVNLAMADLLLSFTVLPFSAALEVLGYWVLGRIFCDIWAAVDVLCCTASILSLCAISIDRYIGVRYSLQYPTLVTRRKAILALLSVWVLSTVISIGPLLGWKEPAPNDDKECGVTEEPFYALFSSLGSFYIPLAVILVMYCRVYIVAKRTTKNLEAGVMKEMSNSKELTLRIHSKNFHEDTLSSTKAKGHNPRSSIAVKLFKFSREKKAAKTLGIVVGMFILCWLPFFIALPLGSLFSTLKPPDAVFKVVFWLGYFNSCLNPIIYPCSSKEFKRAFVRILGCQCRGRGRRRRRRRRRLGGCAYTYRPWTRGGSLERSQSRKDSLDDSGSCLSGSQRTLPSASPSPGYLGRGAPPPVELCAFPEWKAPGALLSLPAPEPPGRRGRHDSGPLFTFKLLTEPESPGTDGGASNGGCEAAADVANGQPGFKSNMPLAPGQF
Experimental: β-arrestin recruitment was measured by BRET, as described (Armando, 2014; Berchiche, 2011). In brief, HEK293T cells were plated in a 6-well plate and transfected with 0.1 μg of CCR2-RluII and 1.9 μg β-arrestin-YFP with 0.1 μg pcDNA3.1 or α1b-AR. One day after transfection, cells were re-plated into 96-well poly-L lysine precoated plates. After overnight incubation, cells were replaced with 0.1% glucose/PBS. Coelenterazine H in a final concentration of 5 μM was added to cells and incubated at room temperature for 3 min. […] The BRET changes were calculated by subtracting the BRET signal of untreated cells.

CCR2 = CCR2 (Homo sapiens, UniProt P41597); assay: CCR2 internalization in THP-1 cells (flow cytometry); design: host or cells: THP-1; details: 100 nM CCL2 plus 1 μM PE, 0-45 min at 37° C.; FIG. 7A/B
Sequence of CCR2 (P41597 whole entry): as the sequence (P41597 whole entry) above
Experimental: To examine receptor internalization in THP-1 cells, cells were incubated with 100 nM CCL2 or with 100 nM CCL2 plus 1 μM PE for 0-45 min at 37° C. Cells were then cooled on ice and washed with 50 mM glycine buffer, pH 2.7, 150 mM NaCl, followed by washing with ice-cold PBS. Cell surface CCR2 was probed with anti-CCR2 and corresponding secondary Alexa 488-conjugated antibodies. Receptor cell surface expression levels are examined by flow cytometry and expressed as the median fluorescence intensity (MFI) in percent of the MFI measured at 0 min (=100%).

CCR8 = assay: Chemotaxis assay, human monocytes toward CCL1 (CCR8-mediated)
Experimental: Cell migration was measured employing the Neuroprobe (Gaithersburg, MD, USA) ChemoTx® Disposable Chemotaxis System. A 96-well Boyden-chamber (30 μL/well, 8 μm pores, 1×10^5 pores/cm^2 pore density) was selected for all chemotaxis experiments. Bottom wells of the Boyden-chamber were loaded with 30 μL of test substances at various concentrations. Top wells of the membrane were loaded with 25 μL of THP-1 cells, THP-1_ADRA1B^KO, wild type THP-1 cells after clonal expansion (=control for THP-1_ADRA1B^KO) or freshly isolated monocytes (200 cells/μL). THP-1 cells were suspended in depleted RPMI1640 (0.5% HyClone™ fetal bovine serum, Sigma); Freshly isolated monocytes were suspended in RPMI1640 (0.5% human platelet poor plasma, Sigma). After 3 hours, transmigrated cells were counted utilizing the Cytation 1 plate reader (BioTek) by direct imaging in high contrast bright field (4×) and post-imaging particle analyses with Gen5 (v3.05) Imaging & Microscopy Software (BioTek). The chemotactic index (CI) was calculated as the ratio of cells that transmigrated in the presence versus the absence of the test solutions.

Compound: Cc1ccc(N(CC2=NCCN2)c2cccc(O)c2)cc1 [phentolamine]
- Top plateau, β-arrestin recruitment BRET in the presence of the ligand (CCR2:α1b-AR heteromers): 0.061±0.002

Compound: CNC[C@H](O)c1cccc(O)c1 [phenylephrine]
- CCR2 cell surface expression, CCL2 plus ligand vs CCL2 alone (CCR2): significantly reduced CCR2 expression
- CCL1-induced chemotaxis (CCR8): not affected
